Results as given in ChEMBL document CHEMBL4715780, “Biological evaluation of tetracationic compounds based on two 1,4-diazabicyclo[2.2.2]octane moieties connected by different linkers” (Bioorg Med Chem, 2016).

Tests used:
Assay type in all cases: functional
[1] = test system: Citrobacter freundii; assay: Antibacterial activity against Citrobacter freundii ATCC 8090 assessed as concentration required to inhibit visible growth by CLSI protocol based serial microdilution method
[2] = test system: Pseudomonas aeruginosa; assay: Antibacterial activity against Pseudomonas aeruginosa ATCC 9027 assessed as bacterial growth inhibition by CLSI protocol based serial microdilution method
[3] = test system: Citrobacter freundii; assay: Antibacterial activity against Citrobacter freundii ATCC 8090 assessed as bacterial growth inhibition by CLSI protocol based serial microdilution method
[4] = test system: Staphylococcus aureus; assay: Antibacterial activity against methicillin-resistant Staphylococcus aureus CEMTC 1850 assessed as concentration required to inhibit visible growth by CLSI protocol based serial microdilution method
[5] = test system: Staphylococcus aureus; assay: Antibacterial activity against methicillin-resistant Staphylococcus aureus CEMTC 1850 assessed as bacterial growth inhibition by CLSI protocol based serial microdilution method
[6] = test system: Staphylococcus aureus; assay: Antibacterial activity against methicillin-resistant Staphylococcus aureus CEMTC 1695 assessed as concentration required to inhibit visible growth by CLSI protocol based serial microdilution method
[7] = test system: Staphylococcus aureus; assay: Antibacterial activity against methicillin-resistant Staphylococcus aureus CEMTC 707 assessed as concentration required to inhibit visible growth by CLSI protocol based serial microdilution method
[8] = test system: Staphylococcus aureus; assay: Antibacterial activity against methicillin-resistant Staphylococcus aureus CEMTC 675 assessed as bacterial growth inhibition by CLSI protocol based serial microdilution method
[9] = test system: Escherichia coli; assay: Antibacterial activity against Escherichia coli ATCC 25922 assessed as bacterial growth inhibition by CLSI protocol based serial microdilution method
[10] = test system: Staphylococcus aureus; assay: Antibacterial activity against methicillin-resistant Staphylococcus aureus CEMTC 1732 assessed as bacterial growth inhibition by CLSI protocol based serial microdilution method
[11] = test system: Proteus vulgaris; assay: Antibacterial activity against Proteus vulgaris ATCC 6380 assessed as bacterial growth inhibition by CLSI protocol based serial microdilution method
[12] = test system: Staphylococcus aureus; assay: Antibacterial activity against […] Staphylococcus aureus ATCC 25923 assessed as bacterial growth inhibition by CLSI protocol based serial microdilution method
[13] = test system: Enterococcus faecalis; assay: Antibacterial activity against Enterococcus faecalis ATCC 51299 assessed as concentration required to inhibit visible growth by CLSI protocol based serial microdilution method
[14] = test system: Proteus vulgaris; assay: Antibacterial activity against Proteus vulgaris ATCC 6380 assessed as concentration required to inhibit visible growth by CLSI protocol based serial microdilution method
[15] = test system: Salmonella typhimurium; assay: Antibacterial activity against Salmonella enterica ATCC 14028 assessed as concentration required to inhibit visible growth by CLSI protocol based serial microdilution method; settings: Salmonella enterica subsp. enterica serovar Typhimurium
[16] = test system: Staphylococcus aureus; assay: Antibacterial activity against methicillin-resistant Staphylococcus aureus CEMTC 1695 assessed as bacterial growth inhibition by CLSI protocol based serial microdilution method
[17] = test system: Escherichia coli; assay: Antibacterial activity against Escherichia coli ATCC 25922 assessed as concentration required to inhibit visible growth by CLSI protocol based serial microdilution method
[18] = test system: Pseudomonas aeruginosa; assay: Antibacterial activity against Pseudomonas aeruginosa ATCC 9027 assessed as concentration required to inhibit visible growth by CLSI protocol based serial microdilution method
[19] = test system: Staphylococcus aureus; assay: Antibacterial activity against methicillin-resistant Staphylococcus aureus CEMTC 1733 assessed as concentration required to inhibit visible growth by CLSI protocol based serial microdilution method
[20] = test system: Staphylococcus aureus; assay: Antibacterial activity against methicillin-resistant Staphylococcus aureus CEMTC 675 assessed as concentration required to inhibit visible growth by CLSI protocol based serial microdilution method
[21] = test system: Staphylococcus aureus; assay: Antibacterial activity against […] Staphylococcus aureus ATCC 25923 assessed as concentration required to inhibit visible growth by CLSI protocol based serial microdilution method
[22] = test system: Salmonella typhimurium; assay: Antibacterial activity against Salmonella enterica ATCC 14028 assessed as bacterial growth inhibition by CLSI protocol based serial microdilution method; settings: Salmonella enterica subsp. enterica serovar Typhimurium
[23] = test system: Staphylococcus aureus; assay: Antibacterial activity against methicillin-resistant Staphylococcus aureus CEMTC 707 assessed as bacterial growth inhibition by CLSI protocol based serial microdilution method
[24] = test system: Staphylococcus aureus; assay: Antibacterial activity against methicillin-resistant Staphylococcus aureus CEMTC 1733 assessed as bacterial growth inhibition by CLSI protocol based serial microdilution method
[25] = test system: Enterococcus faecalis; assay: Antibacterial activity against Enterococcus faecalis ATCC 51299 assessed as bacterial growth inhibition by CLSI protocol based serial microdilution method
[26] = test system: Staphylococcus aureus; assay: Antibacterial activity against methicillin-resistant Staphylococcus aureus CEMTC 1732 assessed as concentration required to inhibit visible growth by CLSI protocol based serial microdilution method

Sequence: GENTAMICIN
- MBC [1]: 0.8 µg/mL
- MIC [2]: > 400 µg/mL
- MIC [3]: 0.4 µg/mL
- MBC [4]: > 100 µg/mL
- MIC [5]: 10 µg/mL
- MBC [6]: > 100 µg/mL
- MBC [7]: 1 µg/mL
- MIC [8]: > 100 µg/mL
- MIC [9]: 50 µg/mL
- MIC [10]: > 100 µg/mL
- MIC [11]: 0.8 µg/mL
- MIC [12]: 50 µg/mL
- MBC [13]: 100 µg/mL
- MBC [14]: 1.6 µg/mL
- MBC [15]: 1.6 µg/mL
- MIC [16]: > 100 µg/mL
- MBC [17]: 100 µg/mL
- MBC [18]: > 400 µg/mL
- MBC [19]: 1 µg/mL
- MBC [20]: > 100 µg/mL
- MBC [21]: 100 µg/mL
- MIC [22]: 0.8 µg/mL
- MIC [23]: 1 µg/mL
- MIC [24]: 1 µg/mL
- MIC [25]: 50 µg/mL
- MBC [26]: > 100 µg/mL
